One experiment relates to Cladosporium herbarum. Put plainly: Antifungal activity against Cladosporium herbarum. In kind it is functional, organism-based.
The next experiment relates to Penicillium griseofulvum. The experiment in a line: Antifungal activity against Penicillium griseofulvum. In kind it is functional, organism-based.

Values after ≈ are worked out from the molar mass of the structure shown.

With `CS/C=C/C(=O)N(C)C(=O)Cc1ccccc1` [PENIMIDE A], the EC50 worked out at 0.9 mg/L (≈ 3.61 µM) in the experiment with Cladosporium herbarum and 3 mg/L (≈ 12 µM) in the experiment on Penicillium griseofulvum.

By EC50 is commonly meant the concentration that produces a half-maximal response.

Source of the values: ChEMBL document CHEMBL1212933, “Alcoholysis of naturally occurring imides: misleading interpretation of antifungal activities” (J Nat Prod, 2010).
